Reference: ChEMBL document CHEMBL5131433, “Novel benzothiazole-based dual VEGFR-2/EGFR inhibitors targeting breast and liver cancers: Synthesis, cytotoxic activity, QSAR and molecular docking studies” (Bioorg Med Chem Lett, 2022)

Columns and labels:
HepG2 = assay: cells; details: Homo sapiens, HepG2, 72 h
Description: Anticancer activity against human HepG2 cells assessed as inhibition of cell growth incubated for 3 days by MTT assay

MCF7 = assay: cells; details: Homo sapiens, MCF7, 72 h
Description: Anticancer activity against human MCF7 cells assessed as inhibition of cell growth incubated for 3 days by MTT assay

[1] = Cytotoxicity against human WI-38 cells assessed as inhibition of cell growth incubated for 3 days by MTT assay; type: toxicity, cell-based
[2] = target: Vascular endothelial growth factor receptor 2 (Homo sapiens, UniProt P35968); assay: Inhibition of VEGFR2 (unknown origin)
[3] = target: Epidermal growth factor receptor (Homo sapiens, UniProt P00533); assay: Inhibition of EGFR (unknown origin)
MDA-MB-231 = assay: Anticancer activity against human MDA-MB-231 cells assessed as inhibition of cell growth incubated for 3 days by MTT assay; type: functional, cell-based; details: MDA-MB-231, 72 h

Sequence of Vascular endothelial growth factor receptor 2 (P35968 whole entry): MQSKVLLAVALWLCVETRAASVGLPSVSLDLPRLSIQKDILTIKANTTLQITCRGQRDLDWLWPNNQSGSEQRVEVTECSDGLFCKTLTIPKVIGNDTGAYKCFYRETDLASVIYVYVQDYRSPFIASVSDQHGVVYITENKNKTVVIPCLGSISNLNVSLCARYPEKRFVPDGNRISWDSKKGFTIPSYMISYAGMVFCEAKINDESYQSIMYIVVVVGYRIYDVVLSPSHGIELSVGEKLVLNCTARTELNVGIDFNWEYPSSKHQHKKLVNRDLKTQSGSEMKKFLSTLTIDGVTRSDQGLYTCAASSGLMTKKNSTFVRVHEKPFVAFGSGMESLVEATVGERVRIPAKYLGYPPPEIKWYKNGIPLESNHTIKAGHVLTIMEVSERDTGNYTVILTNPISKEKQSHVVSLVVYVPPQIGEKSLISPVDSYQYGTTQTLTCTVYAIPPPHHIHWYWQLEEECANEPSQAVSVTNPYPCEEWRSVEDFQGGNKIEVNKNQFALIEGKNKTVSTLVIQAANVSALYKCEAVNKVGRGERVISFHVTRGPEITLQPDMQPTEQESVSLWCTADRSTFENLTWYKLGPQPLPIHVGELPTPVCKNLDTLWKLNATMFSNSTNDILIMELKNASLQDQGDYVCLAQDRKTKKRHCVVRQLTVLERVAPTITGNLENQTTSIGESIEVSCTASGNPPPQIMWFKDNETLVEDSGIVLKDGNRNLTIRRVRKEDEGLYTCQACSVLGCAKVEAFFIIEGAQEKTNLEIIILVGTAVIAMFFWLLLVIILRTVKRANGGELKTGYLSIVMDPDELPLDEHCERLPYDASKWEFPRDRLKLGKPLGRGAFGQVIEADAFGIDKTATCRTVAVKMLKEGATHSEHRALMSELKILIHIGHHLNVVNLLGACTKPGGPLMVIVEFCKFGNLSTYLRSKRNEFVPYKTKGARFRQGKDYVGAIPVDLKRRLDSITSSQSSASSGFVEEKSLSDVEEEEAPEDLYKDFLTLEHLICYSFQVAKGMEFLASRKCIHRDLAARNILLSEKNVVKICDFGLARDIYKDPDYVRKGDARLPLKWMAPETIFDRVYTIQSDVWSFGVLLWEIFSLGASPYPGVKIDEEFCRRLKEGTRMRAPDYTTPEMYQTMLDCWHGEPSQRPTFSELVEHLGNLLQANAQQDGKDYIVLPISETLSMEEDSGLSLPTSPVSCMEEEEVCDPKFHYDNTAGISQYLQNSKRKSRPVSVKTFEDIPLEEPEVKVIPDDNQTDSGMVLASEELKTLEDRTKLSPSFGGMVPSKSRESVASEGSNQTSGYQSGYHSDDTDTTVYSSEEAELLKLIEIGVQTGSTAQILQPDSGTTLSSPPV
Sequence of Epidermal growth factor receptor (P00533 whole entry): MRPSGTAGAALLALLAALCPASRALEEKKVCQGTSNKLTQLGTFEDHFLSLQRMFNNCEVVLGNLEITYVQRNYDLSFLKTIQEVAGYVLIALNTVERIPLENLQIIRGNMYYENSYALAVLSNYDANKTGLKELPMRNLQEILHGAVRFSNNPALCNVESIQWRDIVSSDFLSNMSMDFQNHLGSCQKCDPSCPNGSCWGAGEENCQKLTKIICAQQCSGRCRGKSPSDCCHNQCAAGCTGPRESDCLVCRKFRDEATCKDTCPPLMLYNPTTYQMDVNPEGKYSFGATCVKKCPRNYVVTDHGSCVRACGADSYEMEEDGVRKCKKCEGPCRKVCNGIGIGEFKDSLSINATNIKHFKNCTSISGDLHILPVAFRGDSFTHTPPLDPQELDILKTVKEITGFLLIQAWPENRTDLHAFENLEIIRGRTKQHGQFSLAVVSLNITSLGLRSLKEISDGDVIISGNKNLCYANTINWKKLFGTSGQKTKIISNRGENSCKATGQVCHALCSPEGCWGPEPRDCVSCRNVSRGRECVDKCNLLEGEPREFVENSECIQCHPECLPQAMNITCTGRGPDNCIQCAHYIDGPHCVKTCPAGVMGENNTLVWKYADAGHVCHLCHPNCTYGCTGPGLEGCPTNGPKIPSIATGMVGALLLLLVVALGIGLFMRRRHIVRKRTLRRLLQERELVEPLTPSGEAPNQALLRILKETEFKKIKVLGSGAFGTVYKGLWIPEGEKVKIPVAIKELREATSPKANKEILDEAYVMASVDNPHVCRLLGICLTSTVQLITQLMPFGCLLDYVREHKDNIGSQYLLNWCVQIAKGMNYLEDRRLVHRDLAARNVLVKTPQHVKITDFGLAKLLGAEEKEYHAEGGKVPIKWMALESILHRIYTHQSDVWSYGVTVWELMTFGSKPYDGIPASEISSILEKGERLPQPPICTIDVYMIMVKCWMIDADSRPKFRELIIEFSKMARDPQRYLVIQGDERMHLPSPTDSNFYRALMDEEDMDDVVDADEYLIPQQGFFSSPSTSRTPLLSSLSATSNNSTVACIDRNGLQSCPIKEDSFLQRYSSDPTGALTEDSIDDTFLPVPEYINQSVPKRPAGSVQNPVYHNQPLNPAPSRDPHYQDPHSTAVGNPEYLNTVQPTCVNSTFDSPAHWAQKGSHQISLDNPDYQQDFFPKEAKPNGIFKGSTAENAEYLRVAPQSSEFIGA

IC50 (HepG2) [µM] | IC50 (MCF7) [µM] | IC50 [2] [µM] | IC50 [3] [µM] | IC50 (MDA-MB-231) [µM] | SMILES | IC50 at 3 days [1] [µM]
2.8 | 0.89 | 0.171 | 0.305 | 11 | COc1cc(-c2nc3ccccc3s2)ccc1OCC(=O)NNC(=O)CN[C@@H](Cc1c[nH]cn1)C(=O)O | 49.5
2.89 | 0.78 | – | – | – | COc1cc(-c2nc3ccccc3s2)ccc1OCC(=O)NNC(=O)CCl | –
3.69 | 1.87 | – | – | – | COc1cc(-c2nc3ccccc3s2)ccc1OCC(=O)NNC(=O)CN[C@@H](CS(=O)(=O)O)C(=O)O | –
3.76 | 2.88 | – | – | – | CCOC(=O)[C@H](CS)NCC(=O)NNC(=O)COc1ccc(-c2nc3ccccc3s2)cc1OC | –
2.8 | 0.77 | 0.163 | 0.109 | 7.28 | CCOC(=O)[C@@H]1CCCN1CC(=O)NNC(=O)COc1ccc(-c2nc3ccccc3s2)cc1OC | 75.1
2.68 | 0.74 | 0.152 | 0.157 | 5.67 | CCOC(=O)[C@H](Cc1c[nH]cn1)NCC(=O)NNC(=O)COc1ccc(-c2nc3ccccc3s2)cc1OC | 89.4
3.18 | 1.98 | – | – | – | CCOC(=O)CN(C)CC(=O)NNC(=O)COc1ccc(-c2nc3ccccc3s2)cc1OC | –
3.42 | 1.75 | – | – | – | COc1cc(-c2nc3ccccc3s2)ccc1OCC(=O)NNC(=O)CN(C(C)=O)[C@@H](CS)C(=O)O | –
3.99 | 1.79 | – | – | – | CC[C@H](C)[C@@H](NCC(=O)NNC(=O)COc1ccc(-c2nc3ccccc3s2)cc1OC)C(=O)O | –
3.33 | 1.76 | – | – | – | CCOC(=O)[C@H](CCSC)NCC(=O)NNC(=O)COc1ccc(-c2nc3ccccc3s2)cc1OC | –
3.97 | 2.9 | – | – | – | CCOC(=O)[C@H](NCC(=O)NNC(=O)COc1ccc(-c2nc3ccccc3s2)cc1OC)[C@@H](C)CC | –
3.36 | 1.99 | – | – | – | CCOC(=O)[C@H](CS(=O)(=O)O)NCC(=O)NNC(=O)COc1ccc(-c2nc3ccccc3s2)cc1OC | –
3.01 | 1.89 | – | – | – | CCOC(=O)[C@H](CS)N(CC(=O)NNC(=O)COc1ccc(-c2nc3ccccc3s2)cc1OC)C(C)=O | –
2.58 | 0.83 | 0.162 | 0.209 | 10.5 | COc1cc(-c2nc3ccccc3s2)ccc1OCC(=O)NNC(=O)CN[C@@H](Cc1c[nH]c2ccccc12)C(=O)O | 60.8
2.54 | 0.73 | 0.178 | 0.114 | 5.45 | CCOC(=O)[C@H](Cc1c[nH]c2ccccc12)NCC(=O)NNC(=O)COc1ccc(-c2nc3ccccc3s2)cc1OC | 92.7
3.78 | 1.95 | – | – | – | COc1cc(-c2nc3ccccc3s2)ccc1OCC(=O)NNC(=O)CN[C@@H](CCSC)C(=O)O | –
3.03 | 1.96 | – | – | – | COc1cc(-c2nc3ccccc3s2)ccc1OCC(=O)NNC(O)CN(C)CC(=O)O (stereo not drawn) | –
2.65 | 0.84 | 0.188 | 0.342 | 8.88 | COc1cc(-c2nc3ccccc3s2)ccc1OCC(=O)NNC(=O)CN1CCC[C@H]1C(=O)O | 68.6
3.46 | 1.95 | – | – | – | CCOC(=O)[C@@H](NCC(=O)NNC(=O)COc1ccc(-c2nc3ccccc3s2)cc1OC)[C@@H](C)CC | –
3.54 | 1.71 | – | – | – | CC[C@H](C)[C@H](NCC(=O)NNC(=O)COc1ccc(-c2nc3ccccc3s2)cc1OC)C(=O)O | –
3.12 | 1.23 | – | – | – | COc1cc(-c2nc3ccccc3s2)ccc1OCC(=O)NNC(=O)CN[C@@H](CS)C(=O)O | –

SMILES | IC50 (HepG2) [µM] | IC50 (MCF7) [µM] | IC50 [2] [µM] | IC50 [3] [µM] | IC50 (MDA-MB-231) [µM] | IC50 at 3 days [1] [µM]
COc1cc(-c2nc3ccccc3s2)ccc1OCC(=O)NNC(=O)CNC(=N)NCCC[C@H](N[N+](=O)[O-])C(=O)O | 3.49 | 1.96 | – | – | – | –
CCOC(=O)[C@H](CCCNC(=N)NCC(=O)NNC(=O)COc1ccc(-c2nc3ccccc3s2)cc1OC)N[N+](=O)[O-] | 3.73 | 1.95 | – | – | – | –
COc1cccc2c1C(=O)c1c(O)c3c(c(O)c1C2=O)C[C@@](O)(C(=O)CO)C[C@@H]3O[C@H]1C[C@H](N)[C@H](O)[C@H](C)O1 [DOXORUBICIN] | 2.75 | – | – | – | 7.46 | 79.7
